Laboratory results from US20130030282A1, “SYNTHESIS AND CHARACTERIZATION OF NEAR IR FLUORESCENT MAGNETIC AND NON-MAGNETIC ALBUMIN NANOPARTICLES FOR BIOMEDICAL APPLICATIONS” (BAR ILAN UNIVERSITY, priority 2011, published 2013).

Test: Stability against photobleaching of free CANIR and NIR fluorescent nanoparticles
Type: physicochemical
Conditions: illuminated continuously with a Xenon flash lamp for 20 minutes; λex 800 nm, λem 830 nm; intensity normalized
Protocol: Photobleaching is the irreversible light-induced destruction of the fluorophore, affected by factors such as oxygen, oxidizing or reducing agents, temperature, exposure time and illumination levels. For photobleaching experiments, the samples were diluted to 0.05M and λex was set at 800 nm and λem at 830 nm. Each of the samples was illuminated continuously, and fluorescence intensity was measured over a period of 20 minutes. The intensity values were normalized.
Photobleaching experiments were performed for the free CANIR dye and the CANIR-HSA nanoparticles, in order to examine their photostabillity. For the photobleaching experiments, the samples were diluted to 0.05M and λex was set at 800 nm and λem at 830 nm. Each of the samples was illuminated continuously, and fluorescence intensity was measured over a period of 20 minutes. Intensity values were normalized. […] The encapsulation of the dye probably protects the dye against reactive oxygen species thereby reducing the photobleaching.
FIG. 2 depicts the photostability of the CANIR-HSA nanoparticles (A) and free CANIR (B) as a function of time. Samples of CANIR containing HSA nanoparticles and free CANIR were illuminated with a Xenon flash lamp for 20 minutes as described above.

- fluorescence intensity during illumination (photostability): decreases significantly
SMILES: CC1(C)C(=CC=C2CCCC(C=CC3=[N+](CCCCS(=O)(=O)[O-])c4ccccc4C3(C)C)=C2Sc2ccc(C(=O)O)cc2)N(CCCCS(=O)(=O)[O-])c2ccccc21.[Na+] [free CANIR]
